The subject of assay [1] is vaginal epithelium in the immature female mice. The settings on record: cited from earlier work.
The test system of assay [2] is vaginal epithelium and uterus of ovarectomized female Sprague-Dawley rats. As to the kind of experiment: Estrogenic activity in bilaterally ovarectomized rats (vaginal cornification, uterine wet weight). It counts as in vivo, rat. Particulars: positive control gavaged daily 5 mg/kg BW.
Method: Phytoestrogenic enhancing activities of PLE were evaluated in normal and ovariectomised rats at 150 and 300 mg/kg doses. Estrogenic activity of the alcoholic extract was assessed in bilaterally ovarectomized female Sprague-Dawley rats taking percentage vaginal cornification, and uterine wet weight as parameters of assessment. Ovarectomized female rats (9 rats per group) given distilled water were used as a negative control, while rats gavaged daily with 5 mg/kg BW diethylstilbesterol were used as a positive control. At the end of treatment period of 14 days, rats were euthanized; the uteri were dissected and weighed, thereafter.

`CC1(C)[C@H]2C(=COc3cc(O)ccc32)[C@]2(O)C(=O)C[C@]3(O)C[C@H]1[C@H]2[C@H]3O` [Miroestrol]: the “cornification of the vaginal epithelium” value in assay [1] is “produced cornification of the vaginal epithelium”. Turning to `CC/C(=C(/CC)c1ccc(O)cc1)c1ccc(O)cc1` [synthetic estrogen, diethylstilbesterol], in assay [2], the “cornification of the vaginal epithelium” value is “induced a cornification of the vaginal epithelium as early as the third day of treatment”.

The values above are taken from patent US20120276225A1, “PHYTOESTROGENIC NUTRACEUTICAL COMPOSITION FROM PALM LEAF EXTRACT” (UNIVERSITI PUTRA MALAYSIA, priority 2009, published 2012).
